Article PMC9539459 (Virology, 2022)
Entries after “also recorded” stand apart in the source; their conditions may differ. Where two headings read alike, the source gives them in different places.

Experiments:
SARS-CoV-2 [1] = assay: Cell-based antiviral drug testing in Vero-E6 cells; details: for antiviral activity (in words): top 9 screened compounds, Vero-E6, percent inhibition, SRB assay
SARS-CoV-2 [2] = type: cell-based

## Cc1oc(-c2ccccc2)nc1CCC(=O)c1ccc(CC2SC(=O)NC2=O)cc1 (stereo not shown) [Darglitazone Sodium]
SARS-CoV-2 [1]
  EC50: < 10 µM
  antiviral activity (in words): substantial antiviral activity
SARS-CoV-2 [2]
  inhibition of viral particle production (in words): greater anti-SARS-CoV-2 activity
  reduction of infectious virus production: over 3 orders of magnitude
SARS-CoV-2 [2]; listed as darglitazone sodium
  inhibition of viral particle production (in words): inhibit production of SARS-CoV-2

## C/C=C(/C)C(=O)OC(C)(C)[C@@H]1Cc2c(ccc3ccc(=O)oc23)O1 [Columbianadin]
SARS-CoV-2 [1]
  antiviral activity (in words): substantial antiviral activity
SARS-CoV-2 [2]
  inhibition of viral particle production (in words): inhibit production of SARS-CoV-2

## CNC(=O)c1ccc(-c2cnc3ncc(Cc4ccc5ncccc5c4)n3n2)cc1F [INCB28060]
SARS-CoV-2 [1]
  antiviral activity (in words): best antiviral activity; also recorded: substantial antiviral activity
SARS-CoV-2 [2]
  inhibition of viral particle production (in words): inhibit production of SARS-CoV-2; also recorded: greater anti-SARS-CoV-2 activity
  reduction of infectious virus production: over 3 orders of magnitude
